Paper PMC6364417, “Kinase inhibitor library screening identifies synergistic drug combinations effective in sensitive and resistant melanoma cells” (Journal of Experimental & Clinical Cancer Research : CR, 2019)

What was measured:
Test in all cases: Kinase inhibitor library screening, PrestoBlue cell viability, 1 or 10 μM, 72 h
[1] = system: 501Mel cells (parental); settings: 501Mel Parental, in %
Procedure: (§1) After 72 h of treatment, cell viability was assessed using the PrestoBlue Cell Viability Reagent (ThermoFisher Scientific). Measurements were performed with the CLARIOstar Monochromator microplate reader (BMG Labtech).
(§2) Kinase inhibitor library screening. […] Each cell line was treated in its sensitive form (parental), and also as 2 resistant derivatives, which were made resistant to either Vemurafenib (XP) or Dabrafenib (GP). Drugs were added at 2 different concentrations, 1 and 10 μM, for 72 h and cell viability was assessed using the PrestoBlue Cell Viability assay. Results are depicted as % viability compared to untreated cells. Each cell line was analyzed at least in duplicate. […] (XLSX 95 kb)

[2] = system: IGR37-XP cells (Vemurafenib-resistant); settings: IGR37 XP
Procedure: as §1, §2

[3] = system: IGR37-GP cells (Dabrafenib-resistant); settings: IGR37 GP
Procedure: as §1, §2

[4] = system: A375-XP cells (Vemurafenib-resistant); settings: A375 XP
Procedure: as §1, §2

[5] = system: A375 cells (parental); settings: A375 Parental
Procedure: as §1, §2

[6] = system: 501Mel-XP cells (Vemurafenib-resistant); settings: 501Mel XP, in %
Procedure: as §1, §2

[7] = system: A375-GP cells (Dabrafenib-resistant); settings: A375 GP
Procedure: as §1, §2

[8] = system: 501Mel-GP cells (Dabrafenib-resistant); settings: 501Mel GP, in %
Procedure: as §1, §2

[9] = system: IGR37 cells (parental); settings: IGR37 Parental, in %
Procedure: as §1, §2

Compound: COc1cc2/c(=N/c3ccc(Br)cc3F)nc[nH]c2cc1OCC1CCN(C)CC1 [Vandetanib (Zactima)]
- cell viability (kinase inhibitor library screening) ([1]; 1μΜ): 98.8
- cell viability (kinase inhibitor library screening) ([1]; 10μΜ): 0.4
- cell viability (kinase inhibitor library screening) ([2]; 1μΜ, in %): 94.5
- cell viability (kinase inhibitor library screening) ([2]; 10μΜ, in %): 3.2
- cell viability (kinase inhibitor library screening) ([3]; 1μΜ, in %): 93.4
- cell viability (kinase inhibitor library screening) ([3]; 10μΜ, in %): 31.3
- cell viability (kinase inhibitor library screening) ([4]; 1μΜ, in %): 103.0
- cell viability (kinase inhibitor library screening) ([4]; 10μΜ, in %): 39.3
- cell viability (kinase inhibitor library screening) ([5]; 1μΜ, in %): 98.6
- cell viability (kinase inhibitor library screening) ([5]; 10μΜ, in %): 48.0
- cell viability (kinase inhibitor library screening) ([6]; 1μΜ): 89.6
- cell viability (kinase inhibitor library screening) ([6]; 10μΜ): -0.445
- cell viability (kinase inhibitor library screening) ([7]; 1μΜ, in %): 98.8
- cell viability (kinase inhibitor library screening) ([7]; 10μΜ, in %): 19.2
- cell viability (kinase inhibitor library screening) ([8]; 10μΜ): 0.0201
- cell viability (kinase inhibitor library screening) ([9]; 1μΜ): 96.5
- cell viability (kinase inhibitor library screening) ([9]; 10μΜ): 11.2

Compound: CC1(COc2ccc3c(c2)ncn3-c2ccc3cccc(N4CCC(N)CC4)c3n2)COC1 [Crenolanib (CP-868596)]
- Cell viability in kinase inhibitor library screening, 501Mel Parental, 1μΜ ([1]; 1μΜ, 72 h): 112.4
- Cell viability in kinase inhibitor library screening, 501Mel Parental, 10μΜ ([1]; 10μΜ, 72 h): 12.0
- Cell viability in kinase inhibitor library screening, IGR37 XP, 10μΜ ([2]; 10μΜ, 72 h): 30.9%
- Cell viability in kinase inhibitor library screening, IGR37 GP, 10μΜ ([3]; 10μΜ, 72 h): 84.5%
- Cell viability in kinase inhibitor library screening, IGR37 GP, 1μΜ ([3]; 1μΜ, 72 h, in %): 104.5
- Cell viability in kinase inhibitor library screening, A375 XP, 1μΜ ([4]; 1μΜ, 72 h): 108.4
- Cell viability in kinase inhibitor library screening, A375 XP, 10μΜ ([4]; 10μΜ, 72 h): 78.4
- Cell viability in kinase inhibitor library screening, A375 Parental, 10μΜ ([5]; 10μΜ, 72 h): 69.9
- Cell viability in kinase inhibitor library screening, A375 Parental, 1μΜ ([5]; 1μΜ, 72 h): 109.2
- Cell viability in kinase inhibitor library screening, 501Mel XP, 10μΜ ([6]; 10μΜ, 72 h): 0.1
- Cell viability in kinase inhibitor library screening, A375 GP, 10μΜ ([7]; 10μΜ, 72 h): 66.5
- Cell viability in kinase inhibitor library screening, 501Mel GP, 1μΜ ([8]; 1μΜ, 72 h): 108.6
- Cell viability in kinase inhibitor library screening, 501Mel GP, 10μΜ ([8]; 10μΜ, 72 h): 51.0
- Cell viability in kinase inhibitor library screening, IGR37 Parental, 1μΜ ([9]; 1μΜ, 72 h): 103.4
- Cell viability in kinase inhibitor library screening, IGR37 Parental, 10μΜ ([9]; 10μΜ, 72 h): 89.7

Compound: CC(O)C(=O)O.CC(O)C(=O)O.CN1CCN(c2ccc3nc(-c4c(N)c5c(F)cccc5[nH]c4=O)[nH]c3c2)CC1
- cell viability, 501Mel Parental, 1μΜ ([1]; 1μΜ, 72 h): 106.3
- cell viability, 501Mel Parental, 10μΜ ([1]; 10μΜ, 72 h): 0.756
- cell viability, IGR37 XP, 10μΜ ([2]; 10μΜ, 72 h): 33%
- cell viability, IGR37 XP, 1μΜ ([2]; 1μΜ, 72 h, in %): 106.9
- cell viability, IGR37 GP, 10μΜ ([3]; 10μΜ, 72 h): 46.5%
- cell viability, IGR37 GP, 1μΜ ([3]; 1μΜ, 72 h, in %): 106.1
- cell viability, A375 XP, 10μΜ ([4]; 10μΜ, 72 h, in %): 59.2
- cell viability, A375 Parental, 1μΜ ([5]; 1μΜ, 72 h, in %): 106.9
- cell viability, A375 Parental, 10μΜ ([5]; 10μΜ, 72 h, in %): 48.0
- cell viability, 501Mel XP, 1μΜ ([6]; 1μΜ, 72 h): 91.1
- cell viability, 501Mel XP, 10μΜ ([6]; 10μΜ, 72 h): -0.0481
- cell viability, A375 GP, 1μΜ ([7]; 1μΜ, 72 h, in %): 91.8
- cell viability, A375 GP, 10μΜ ([7]; 10μΜ, 72 h, in %): 46.4
- cell viability, 501Mel GP, 1μΜ ([8]; 1μΜ, 72 h): 100.0
- cell viability, 501Mel GP, 10μΜ ([8]; 10μΜ, 72 h): 0.0395
- cell viability, IGR37 Parental, 1μΜ ([9]; 1μΜ, 72 h): 105.9
- cell viability, IGR37 Parental, 10μΜ ([9]; 10μΜ, 72 h): 76.1
